Tests used:
[1] = tested on: PPT1-KO mice; test: Toxicity of dietary NtBuHA in Ppt1-KO mice; assay type: in vivo, mouse
Source text: Thus, toxicity of HA precludes its clinical use. However, HA-derivatives may be non-toxic. […] (See Table 1 for a listing of these HA-derivatives). […] (See Table 3).

[2] = tested on: PPT1-KO mice; test: Open field test, exploratory behavior of PPT1-KO mice; assay type: in vivo, mouse; details: 6-month and 8-month old PPT1-KO mice (FIG. 19E-F)
Source text: Since NtBuHA functionally mimics PPT1, the inventors tested 6-month and 8-month old wild-type, untreated- and NtBuHA-treated PPT1-KO mice for motor coordination and exploratory behavior. The Rotarod Performance Test, which measures parameters such as riding time (seconds) and/or endurance was used to measure motor coordination. The open field test was utilized to evaluate the exploratory behavior.

[3] = tested on: PPT1-KO mice; test: Western blot of ER-stress and oxidative-stress markers in brain lysates of PPT1-KO mice; assay type: in vivo, mouse
Procedure: Western blot analysis was performed as using standard methodology. Briefly 30 μg of protein was resolved in 4-12% Bis tris gel (Invitrogen) and electro-transferred in PVDF membrane. The membranes were blocked with 5% non fat dried milk for 1 hour at room temperature and were then probed overnight with primary antibody at 4 C. After washing the blots were incubated with horseradish peroxidase conjugated secondary antibody (Santacruz Biotechnology) for 1 hour at room temperature and developed using enhanced chemiluminescences detection reagents (Pierce). Primary antibodies used in this study were caspase-3, caspase-9 (cell signaling) SOD2, catalase, β-Actin (US Biologicals).
It has previously reported that endoplasmic reticulum (ER-) and oxidative-stress contribute to neuropathology in INCL patients. […] Therefore, the inventors sought to determine whether NtBuHA-treatment of PPT1-KO mice ameliorate the ER- and oxidative-stress in brain tissues of these mice. Accordingly, the levels of ER-stress markers Grp-78, Grp-94 and ATF6 were determined by Western blot analysis of brain lysates. […] Western blot analysis of brain lysates from NtBuHA-treated and untreated PPT1-KO mice was also performed to determine the levels of superoxide dismutase-2 (SOD2) and catalase, which increases with elevated oxidative-stress.

[4] = tested on: INCL lymphoblasts; test: TEM analysis of GRODs in cultured INCL lymphoblasts; assay type: cell-based, human
Procedure: Transmission electron microsocopy (TEM) of INCL lymphoblasts and fibroblasts was performed. Briefly, cells were first treated with 250 μM NtBuHA for 3 weeks. Medium was replaced with fresh 250 μM of NtBuHA at every 72 hours. After treatment, cells were fixed with 2.5% glutaraldehyde in sodium phosphate buffer, washed three times with Millonig's phosphate buffer and stained with 2.5% uranyl acetate. Ultra-thin sections were then prepared using AO Reichert Ultracut ultramicrotome, stained with lead citrate and examined by using Zeiss EM10 CA.
Accordingly, untreated- and NtBuHA-treated cultured INCL lymphoblasts were analyzed using TEM.
For a therapeutic agent to be effective for INCL it must not only mediate depletion of ceroid by cleaving thioester linkage in S-acylated proteins but it must also prevent re-accumulation of ceroid. […] Some of these cultures were washed with PBS and then cultured for an additional 3 weeks in medium without NtBuHA before being analyzed by TEM.

[5] = tested on: PPT1-KO mice; test: NeuN immunohistochemistry of cortical tissue sections of PPT1-KO mice; assay type: in vivo, mouse; details: brain sections vs untreated PPT1-KO mice (FIG. 18)
Procedure: The NtBuHA treated and untreated mouse brain tissues were fixed in 3.7% paraformaldehyde, embedded in paraffin and processed for histological analyses. Briefly, after being treated with xylene and then successively with different concentrations of ethanol in phosphate buffered saline (PBS) (100% to 0%), tissue sections were blocked with 5% BSA in PBS. Sections were then probed overnight with anti-synaptophysin (Abcam) and anti-GFAP followed by incubation with alexa fluor 594 conjugated anti-rabbit and anti-mouse secondary antibodies (Invitrogen). Sections were mounted with DAPI containing mounting medium and imaged using Zeiss LSM 510 Inverted Meta confocal microscope (Carl Zeiss).
It has been reported that postmortem brain tissues from INCL patients as well as those from PPT1-KO mice manifest high levels of oxidative stress, which induces neuronal apoptosis contributing to neuropathology. […] Accordingly, a terminal deoxynucleotidyl transferase dUTP nick end labeling (TUNEL) assay was performed using cortical tissue sections from wild-type, untreated PPT1-KO and NtBuHA-treated PPT1-KO mice to determine the level of apoptosis. […] Quantitative analysis of the NeuN-positive cells in brain tissues from wild-type, untreated and NtBuHA-treated PPT1-KO mice (FIG. 18D) confirmed the visual assessment.

[6] = tested on: PPT1-KO mice; test: Autofluorescence of brain tissues of PPT1-KO mice; assay type: in vivo, mouse; details: vs untreated PPT1-KO mice (FIG. 13)
Procedure: All animal experiments were performed according to the institutional guidelines after an animal protocol was approved by the Animal Care and Use Committee of the National Institute of Child Health and Development, National Institutes of Health. PPT1-KO mice (a gift from Dr. S. L. Hofmann, University of Texas Southwestern Medical Center at Dallas, Dallas, Tex., USA) were generated by targeted disruption of the last exon in the PPT1 gene in embryonic stem (ES) cells. These mice were subsequently backcrossed for 10 generations with wild type C57BL/6 mice in order to obtain congenic C57 background and a breeding pair was provided by Dr. Mark Sands to start the inventors' colony. Animals were housed and maintained in a pathogen-free facility. Three-month old PPT-KO mice were given NtBuHA in their drinking water (1 mM NtBuHA and 1 mM NaCl).
Accumulation of intracellular autofluorescent lipopigment material in the brain and other tissues is a characteristic pathological finding in INCL patients and in PPT1-KO mice. Given this, it was hypothesized that NtBuHA-mediated depletion of GRODs may also reduce the intensity of autofluorescence in brain tissues of NtBuHA-treated PPT1-KO mice. Accordingly, a comparison of the autofluorescence of brain tissues from NtBuHA-treated PPT 1-KO mice, untreated PPT 1-KO mice, and wild-type litter-mates was performed.

## CC(C)(C)NO [NtBuHA, N-(tert-Butyl)hydroxylamine]
[1]
  toxicity in Ppt1-KO mice: showed no toxicity
[2]
  exploratory behavior (open field): retained near normal motor function (FIG. 19A-D) as well as exploratory behavior
[3]; brain lysates vs untreated PPT1-KO mice (FIG. 14B)
  levels of SOD2 and catalase: significantly reduced the levels of both SOD2 and catalase
[3]; brain tissues (FIG. 14A)
  levels of ER-stress markers Grp-78, Grp-94 and ATF6: levels of all three ER-stress markers were reduced
[4]; 250 μM for 3 weeks vs untreated controls (FIG. 9A-C)
  GRODs in INCL lymphoblasts: either no GRODs, FIG. 9B, or a substantially reduced number of GRODs that were considerably smaller in size
[4]; 3 weeks treatment, then additional 3 weeks in medium without NtBuHA (FIG. 9D, 11)
  GRODs after withdrawal of treatment: withdrawal from the culture medium caused reaccumulation
[5]
  NeuN-positive cells: modestly higher level of NeuN-positive cells
[6]
  autofluorescence of brain tissues: markedly reduced autofluorescence

From patent publication US9629816B2, “Small molecule therapeutic compounds targeting thioesterase deficiency disorders and methods of using the same” (The United States of America, as represented by the …, priority 2011, dated 2017)
